In patent publication US4468511A, “C-20- And C-23-Modified macrolide derivatives” (Eli Lilly and Company, priority 1983, dated 1984):
Values after ≈ are worked out from the molar mass of the structure shown. Where two headings read alike, the source gives them in different places.

Columns and labels:
[1] = system: Haemophilus influenzae 76; experiment: MIC, standard agar-dilution assay; assay type: cell-based
Experimental: (§1) The MIC's in Table II were determined by standard agar-dilution assays. The MIC's in Table III were obtained using a conventional broth-dilution microtiter test.

[2] = system: Staphylococcus epidermidis EPI2; experiment: MIC, standard agar-dilution assay; assay type: cell-based; conditions: agar-dilution; Staphylococcus epidermidis EPI2; read-out: MIC
Experimental: as §1

[3] = system: Haemophilus influenzae C.L.; experiment: MIC, standard agar-dilution assay; assay type: cell-based
Experimental: as §1

[4] = system: Staphylococcus aureus X400; experiment: MIC, standard agar-dilution assay; assay type: cell-based
Experimental: as §1

[5] = system: Streptococcus pyogenes C203; experiment: Protection of mice experimentally infected with S. pyogenes C203; assay type: in vivo; conditions: mg/kg × 2, doses given 1 and 4 hours postinfection
Experimental: Some of the derivatives of this invention have shown in vivo antimicrobial activity against experimentally-induced infections in laboratory animals. When two doses of test compound were administered to mice experimentally infected with S. pyogenes C203, the activity observed was measured as an ED50 value [effective dose in mg/kg to protect 50% of the test animals: see Warren Wick, et al., J. Bacteriol. 81, 233-235 (1961)].

[6] = system: Staphylococcus aureus S13E; experiment: microbe, parasite or virus in culture; assay type: cell-based
Experimental: as §1

[7] = system: Staphylococcus epidermidis EPI1; experiment: microbe, parasite or virus in culture; assay type: cell-based; conditions: Staphylococcus epidermidis, EPI1
Experimental: as §1

[8] = system: Staphylococcus aureus V41; experiment: MIC, standard agar-dilution assay; assay type: cell-based; conditions: Staphylococcus aureus, V41
Experimental: (§2) Certain of the derivatives are active against some gram-negative bacteria, such as Pasteurella species. The MIC's in Table II were determined by standard agar-dilution assays. The MIC's in Table III were obtained using a conventional broth-dilution microtiter test.

[9] = system: Streptococcus Group D X66; experiment: MIC, standard agar-dilution assay; assay type: cell-based
Experimental: as §2

[10] = system: Klebsiella pneumoniae KAE; experiment: MIC, standard agar-dilution assay; assay type: cell-based; conditions: agar-dilution; Klebsiella pneumoniae KAE; read-out: MIC
In short: (§3)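 Agar plates containing graded compound levels gave the Klebsiella value. Graded broth dilutions in microtiter plates gave the Pasteurella and Mycoplasma values.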

[11] = system: Staphylococcus aureus X1.1; experiment: MIC, standard agar-dilution assay; assay type: cell-based; conditions: Staphylococcus aureus, X1.1
In short: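 A standard agar-dilution assay was used to test compounds against the Staphylococcus aureus isolate X1.1. Bacterial growth on agar with different compound concentrations was assessed, and the minimum inhibitory concentration was recorded in ug/mL.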

[12] = system: Streptococcus pyogenes 9960; experiment: MIC, standard agar-dilution assay; assay type: cell-based
Experimental: as §2

[13] = system: Streptococcus pneumoniae Park I; experiment: MIC, standard agar-dilution assay; assay type: cell-based; conditions: agar-dilution; Streptococcus pneumoniae Park I; read-out: MIC
Experimental: as §2

[14] = system: Streptococcus pyogenes C203; experiment: MIC, standard agar-dilution assay; assay type: cell-based
Experimental: as §2

Escherichia coli TEM = experiment: MIC, standard agar-dilution assay; assay type: cell-based
In short: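 Antibacterial activity toward the gram-negative organism Escherichia coli was assessed by conventional agar dilution. The MIC, reported in ug/mL, is the minimum compound concentration on agar that prevents growth.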

[15] = system: Klebsiella pneumoniae X26; experiment: MIC, standard agar-dilution assay; assay type: cell-based; conditions: agar-dilution; Klebsiella pneumoniae X26; read-out: MIC
In short: as §3

Escherichia coli EC14 = experiment: MIC, standard agar-dilution assay; assay type: cell-based
Experimental: as §2

[16] = system: Pasteurella hemolytica 41D; experiment: MIC, conventional broth-dilution microtiter test; assay type: cell-based
In short: as §3

Mycoplasma synoviae = experiment: MIC, conventional broth-dilution microtiter test; assay type: cell-based; conditions: Mycoplasmopsis synoviae; broth-dilution microtiter; Mycoplasma synoviae; read-out: MIC
In short: (§4)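 Two formats were used. Broth dilution in microtiter plates served for Pasteurella and Mycoplasma, while agar dilution served for Klebsiella.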

[17] = system: Pasteurella multocida 68C; experiment: MIC, conventional broth-dilution microtiter test; assay type: cell-based; conditions: Pasteurella multocida, 68C
In short: as §3

[18] = system: Pasteurella hemolytica 22C; experiment: MIC, conventional broth-dilution microtiter test; assay type: cell-based; conditions: broth-dilution microtiter; Pasteurella hemolytica 22C; read-out: MIC
In short: as §3

Mycoplasma gallisepticum = experiment: MIC, conventional broth-dilution microtiter test; assay type: cell-based; conditions: Mycoplasmoides gallisepticum
In short: as §3

[19] = system: Pasteurella multocida 60A; experiment: MIC, conventional broth-dilution microtiter test; assay type: cell-based
In short: as §3

[20] = system: Mycoplasma gallisepticum 34159; experiment: MIC, conventional broth-dilution microtiter test; assay type: cell-based; conditions: Mycoplasmoides gallisepticum
In short: as §3

Mycoplasma hyorhinis = experiment: MIC, conventional broth-dilution microtiter test; assay type: cell-based; conditions: broth-dilution microtiter; Mycoplasma hyorhinis; read-out: MIC
In short: as §4

[21] = system: Pasteurella multocida 40G; experiment: MIC, conventional broth-dilution microtiter test; assay type: cell-based
In short: as §3

[22] = system: Pasteurella multocida 22A; experiment: MIC, conventional broth-dilution microtiter test; assay type: cell-based
In short: as §3

[23] = system: Pasteurella multocida 17E; experiment: MIC, conventional broth-dilution microtiter test; assay type: cell-based
In short: as §3

Streptococcus sp. 80 = experiment: MIC, conventional broth-dilution microtiter test; assay type: cell-based
Experimental: as §2

[24] = system: Pasteurella hemolytica 23C; experiment: MIC, conventional broth-dilution microtiter test; assay type: cell-based
In short: as §3

[25] = system: Mycoplasma gallisepticum 41313; experiment: MIC, conventional broth-dilution microtiter test; assay type: cell-based; conditions: Mycoplasmoides gallisepticum
In short: as §3

Staphylococcus aureus = experiment: MIC, conventional broth-dilution microtiter test; assay type: cell-based; conditions: broth-dilution microtiter, read-out: MIC
Experimental: as §2

Pasteurella multocida = experiment: Pasteurella infection in one-day old chicks; assay type: in vivo; conditions: subcutaneous, 30 mg/kg × 2, 1 and 4 hours post-challenge
Experimental: Certain of the formula 1 compounds of this invention have also shown in vivo activity against infections induced by gram-negative bacteria. Table V summarizes the results of tests in which illustrative compounds were evaluated against a Pasteurella infection in one-day old chicks. The compounds were administered parenterally after challenge of the chicks with Pasteurella multocida (0.1 ml of a 10^-4 dilution of a twenty-hour tryptose broth culture of an avian P. multocida given subcutaneously). In these tests, unless indicated otherwise, all non-medicated infected chicks died within 24 hours of Pasteurella challenge. In the tests summarized in Table V, the compounds were administered by subcutaneous injection at a dosage of 30 mg/kg, 1 and 4 hours post-challenge of the chicks with P. multocida.

In the case of CCC1OC(=O)CC(O)C(C)C(OC2OC(C)C(O)C(N(C)C)C2O)C(CCNCCc2ccccc2)CC(C)C(=O)C=CC(C)=CC1CO (stereo not drawn) [Compound 5, 20-N-Phenethylamino-20-deoxy-20-dihydro-OMT], the MIC ([1]; Haemophilus influenzae, 76) is reported as 8 µg/mL (≈ 11.4 µM), the MIC [2] is reported as 16 µg/mL (≈ 22.8 µM) and the MIC ([3]; Haemophilus influenzae) is reported as 8 µg/mL (≈ 11.4 µM). For the same molecule, the MIC ([4]; Staphylococcus aureus, X400) was 16 µg/mL (≈ 22.8 µM), the ED50 ([5]; C203, mice, oral, read-out: ED50 Oral) was greater than 100 mg/kg and the ED50 ([5]; C203, sc, mice, subcutaneous, read-out: ED50 Subcutaneous) was 7.2 mg/kg. For the same molecule, the MIC [6] was 8 µg/mL (≈ 11.4 µM), the MIC [7] was 4 µg/mL (≈ 5.69 µM) and the MIC [8] was 8 µg/mL (≈ 11.4 µM). It also gave an MIC [9] of 8 µg/mL (≈ 11.4 µM), an MIC [10] greater than 128 µg/mL and an MIC [11] of 4 µg/mL (≈ 5.69 µM). It also gave an MIC ([12]; agar-dilution, Streptococcus 9960, read-out: MIC) of 16 µg/mL (≈ 22.8 µM), an MIC [13] of 1 µg/mL (≈ 1.42 µM) and an MIC ([14]; Streptococcus pyogenes, C203) of 2 µg/mL (≈ 2.85 µM). It also gave an MIC (Escherichia coli TEM; Escherichia coli) of 8 µg/mL (≈ 11.4 µM), an MIC [15] of 4 µg/mL (≈ 5.69 µM) and an MIC (Escherichia coli EC14; Escherichia coli, EC14) of 64 µg/mL (≈ 91 µM). It also gave an MIC ([16]; broth-dilution microtiter, Pasteurella hemolytica 41D, read-out: MIC) of 3.12 µg/mL (≈ 4.44 µM), an MIC (Mycoplasma synoviae) of 3.12 µg/mL (≈ 4.44 µM) and an MIC [17] of 1.56 µg/mL (≈ 2.22 µM). For the same molecule, the MIC [18] was 6.25 µg/mL (≈ 8.89 µM), the MIC (Mycoplasma gallisepticum) was 1.56 µg/mL (≈ 2.22 µM) and the MIC ([19]; broth-dilution microtiter, Pasteurella multocida 60A, Avian isolate, read-out: MIC) was 3.12 µg/mL (≈ 4.44 µM). For the same molecule, the MIC [20]; 34159 was 50 µg/mL (≈ 71.1 µM), the MIC (Mycoplasma hyorhinis) was greater than 50 µg/mL and the MIC ([21]; broth-dilution microtiter, Pasteurella multocida 40G, read-out: MIC) was 6.25 µg/mL (≈ 8.89 µM). For the same molecule, the MIC ([22]; broth-dilution microtiter, Pasteurella multocida 22A, read-out: MIC) was 6.25 µg/mL (≈ 8.89 µM), the MIC ([23]; broth-dilution microtiter, Pasteurella multocida 17E, Bovine isolate, read-out: MIC) was 3.12 µg/mL (≈ 4.44 µM) and the MIC (Streptococcus sp. 80; Streptococcus, SP.80) was 1.56 µg/mL (≈ 2.22 µM). For the same molecule, the MIC ([24]; broth-dilution microtiter, Pasteurella hemolytica 23C, read-out: MIC) was 3.12 µg/mL (≈ 4.44 µM), the MIC [25]; 41313 was 50 µg/mL (≈ 71.1 µM) and the MIC (Staphylococcus aureus) was 6.25 µg/mL (≈ 8.89 µM). For the same molecule, the “Number of Deaths/Number Treated” value (Pasteurella multocida) was 1/10.

Work on CCC1OC(=O)CC(O)C(C)C(OC2OC(C)C(O)C(N(C)C)C2O)C(CCOc2ccccc2)CC(C)C(=O)C=CC(C)=CC1CN1CCCCCCC1 (stereo not drawn) [Compound 34, 20-O-Phenyl-20-dihydro-23-Octahydroazocin-1-yl-OMT] yielded an MIC ([1]; agar-dilution, Haemophilus influenzae 76, Ampicillin-resistant strain, read-out: MIC) of 8 µg/mL (≈ 10.4 µM), an MIC [2] of 0.12 µg/mL (≈ 0.156 µM) and an MIC ([3]; agar-dilution, Haemophilus influenzae C.L., Ampicillin-sensitive strain, read-out: MIC) of 4 µg/mL (≈ 5.19 µM). For the same molecule, the MIC ([4]; agar-dilution, Staphylococcus aureus X400, Methicillin-resistant strain, read-out: MIC) was 0.5 µg/mL (≈ 0.648 µM), the MIC [6] was 0.25 µg/mL (≈ 0.324 µM) and the MIC [7] was 0.25 µg/mL (≈ 0.324 µM). For the same molecule, the MIC [8] was 0.25 µg/mL (≈ 0.324 µM), the MIC [9] was 2 µg/mL (≈ 2.59 µM) and the MIC [10] was greater than 128 µg/mL. The MIC [11] was 0.25 µg/mL (≈ 0.324 µM), the MIC [12]; 9960 was 2 µg/mL (≈ 2.59 µM) and the MIC [13] was 0.12 µg/mL (≈ 0.156 µM). For the same molecule, the MIC ([14]; agar-dilution, Streptococcus pyogenes C203, read-out: MIC) was 0.12 µg/mL (≈ 0.156 µM), the MIC (Escherichia coli TEM; agar-dilution, Escherichia coli TEM, read-out: MIC) was 8 µg/mL (≈ 10.4 µM) and the MIC [15] was 8 µg/mL (≈ 10.4 µM). It also gave an MIC (Escherichia coli EC14; agar-dilution, Escherichia coli EC14, read-out: MIC) greater than 128 µg/mL, an MIC ([16]; Pasteurella, 41D) of 3.12 µg/mL (≈ 4.05 µM) and an MIC (Mycoplasma synoviae) of 12.5 µg/mL (≈ 16.2 µM). It also gave an MIC [17] of 3.12 µg/mL (≈ 4.05 µM), an MIC [18] of 1.56 µg/mL (≈ 2.02 µM) and an MIC (Mycoplasma gallisepticum) of 0.097 µg/mL (≈ 0.126 µM). For the same molecule, the MIC ([19]; Pasteurella multocida, 60A) was 6.25 µg/mL (≈ 8.11 µM), the MIC ([20]; broth-dilution microtiter, Mycoplasma gallisepticum 34159, Resistant strain, read-out: MIC) was 50 µg/mL (≈ 64.8 µM) and the MIC (Mycoplasma hyorhinis) was 50 µg/mL (≈ 64.8 µM). It also gave an MIC ([21]; Pasteurella multocida, 40G) of 3.12 µg/mL (≈ 4.05 µM), an MIC ([22]; Pasteurella multocida, 22A) of 6.25 µg/mL (≈ 8.11 µM) and an MIC ([23]; Pasteurella multocida, 17E) of 3.12 µg/mL (≈ 4.05 µM). For the same molecule, the MIC (Streptococcus sp. 80; broth-dilution microtiter, Streptococcus sp. 80, read-out: MIC) was 0.78 µg/mL (≈ 1.01 µM), the MIC ([24]; Pasteurella, 23C) was 3.12 µg/mL (≈ 4.05 µM) and the MIC ([25]; broth-dilution microtiter, Mycoplasma gallisepticum 41313, Resistant strain, read-out: MIC) was 25 µg/mL (≈ 32.4 µM). The MIC (Staphylococcus aureus) was 0.39 µg/mL (≈ 0.506 µM) and the “Number of Deaths/Number Treated” value (Pasteurella multocida) was 10/10.
